Results published in patent US10597392B2, “Tetrahydropyridopyrazines as modulators of GPR6” (Takeda Pharmaceutical Corporation Limited, priority 2014, dated 2020).

These molecules were tested against T1, GPR6 receptor expressed in CHO-K1 cells (Homo sapiens, UniProt P46095) (assay: Inhibition of cAMP Activity of GPR6 In Vitro Assay). Conditions: inhibition of constitutive cAMP activity of GPR6 in CHO-K1 cells, 45 min incubation, HTRF cAMP detection.
T1 construct: expressed in transfected cells
Format: cell-based
Method: Inhibition of cAMP Activity of GPR6 In Vitro Assay
This cell based assay measures the ability of compounds to inhibit the constitutive cAMP activity of GPR6 receptor expressed in CHO-K1 cells. CHO cells were stably expressed with GPR6 receptor, whose expression is controlled by a tetracycline inducable element. The cells were cultured in medium containing F12K, 10% FBS, 1% Penn/Strep, 200 ug/mL Hygromycin. GPR6 receptor expression was induced for 20 hrs with 2 µg/ml doxycycline (sigma D9891) in growth media. After addition of doxycycline cells were plated at a density of 450-750 cells per well in 96-well half-volume black tissue culture plates (Costar) and placed in an incubator (37°, 5% CO2) for 20 hours prior to cAMP assays.
Culture media was removed from cells and they were washed with 50 µL/well of Ringer's Buffer (MgCl2 0.047 mg/mL, NaH2PO4 0.18 mg/mL, Na2HPO4 0.1 mg/mL, KCl 0.34 mg/mL, NaHCO3 1.26 mg/mL, D-glucose 1.8 mg/mL, NaCl 7 mg/mL; pH=7.4). Compounds suspended in DMSO were diluted in Ringer's Buffer containing 0.5% fatty acid free BSA plus 300 μM IBMX and incubated on cells for 45 min at 37° and 5% CO2. After incubation cells were incubated for 10 min at room temp with Eu-cAMP tracer solution from a Perkin Elmer Lance HTRF Ultra cAMP assay kit (TRF0263). Then ULight™-anti-cAMP solution from the Lance HTRF kit was added and incubated on a shaker at room temp for 1 hour prior to HTRF detection in a Perkin Elmer Envision plate reader.
IC50 curves were generated with a four-parameter logistic equation using GraphPad Prism 5.03.

T1 sequence (P46095 whole entry): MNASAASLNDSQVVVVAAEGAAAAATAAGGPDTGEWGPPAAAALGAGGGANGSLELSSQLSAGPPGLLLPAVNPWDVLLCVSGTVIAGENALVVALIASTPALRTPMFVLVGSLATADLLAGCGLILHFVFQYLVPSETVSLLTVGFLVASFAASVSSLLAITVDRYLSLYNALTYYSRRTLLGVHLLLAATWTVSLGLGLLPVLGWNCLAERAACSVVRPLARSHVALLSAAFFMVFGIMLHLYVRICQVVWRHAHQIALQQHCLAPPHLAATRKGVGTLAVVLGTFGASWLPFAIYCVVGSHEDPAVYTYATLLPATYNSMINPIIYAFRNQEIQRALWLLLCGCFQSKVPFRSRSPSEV

Row | EC50 | SMILES
1 | 102 nM | Cc1cc2nc(N3CCN(Cc4ccc(F)cc4F)CC3)c(N[C@@H]3CCOC3)nc2cn1 [Example 33]
2 | 309 nM | Cc1cc2nc(N3CCC(Oc4ccc(OC(F)F)cc4F)CC3)c(NC(C)C)nc2cn1 [Example 38, 2-(4-(4-(difluoromethoxy)-2-fluorophenoxy)piperidin-1-yl)-N-isopropyl-7-methylpyrido[3,4-b]pyrazin-3-amine]
3 | 158 nM | COc1ccc(CN2CCN(c3nc4cnc(C)cc4nc3NC3CC3)CC2)c(F)c1 [Example 23, N-cyclopropyl-3-(4-(2-fluoro-4-methoxybenzyl)piperazin-1-yl)-7-methylpyrido[3,4-b]pyrazin-2-amine]
4 | > 1000 nM | Cc1cc2nc(N[C@H]3CCOC3)c(N3CCN(Cc4ccc(OC(F)F)cc4F)CC3)nc2cn1 [Example 29, (S)-3-(4-(4-(difluoromethoxy)-2-fluorobenzyl)piperazin-1-yl)-7-methyl-N-(tetrahydrofuran-3-yl)pyrido[3,4-b]pyrazin-2-amine]
5 | 75.2 nM | Cc1cc2nc(N[C@H]3C[C@H](O)C3)c(N3CCN(Cc4ccc(F)cc4F)CC3)nc2cn1 [Example 14, trans-3-((3-(4-(2,4-difluorobenzyl)piperazin-1-yl)-7-methylpyrido[3,4-b]pyrazin-2-yl)amino)cyclobutanol]
6 | 162 nM | Cc1cc2nc(N[C@H]3CCOC3)c(N3CCC(Oc4ccc(OC(F)F)cc4F)CC3)nc2cn1 [Example 21, (S)-3-(4-(4-(difluoromethoxy)-2-fluorophenoxy)piperidin-1-yl)-7-methyl-N-(tetrahydrofuran-3-yl)pyrido[3,4-b]pyrazin-2-amine]
7 | 276 nM | COc1ccc(CN2CCN(c3nc4cc(C)ncc4nc3NC(C)C)CC2)c(F)c1 [Example 42, 2-(4-(2-fluoro-4-methoxybenzyl)piperazin-1-yl)-N-isopropyl-7-methylpyrido[3,4-b]pyrazin-3-amine]
8 | 21.9 nM | Cc1cc2nc(NC3COC3)c(N3CCN(Cc4ccc(F)cc4F)CC3)nc2cn1 [Example 15, 3-(4-(2,4-difluorobenzyl)piperazin-1-yl)-7-methyl-N-(oxetan-3-yl)pyrido[3,4-b]pyrazin-2-amine]
9 | 311 nM | COc1ccc(CN2CCN(c3nc4cnc(C)cc4nc3N[C@@H]3CCOC3)CC2)c(F)c1 [Example 24, (R)-3-(4-(2-fluoro-4-methoxybenzyl)piperazin-1-yl)-7-methyl-N-(tetrahydrofuran-3-yl)pyrido[3,4-b]pyrazin-2-amine]
10 | 69.3 nM | Cc1cc2nc(N[C@H]3C[C@@H](O)C3)c(N3CCN(Cc4ccc(F)cc4F)CC3)nc2cn1 [Example 10, cis-3-((3-(4-(2,4-difluorobenzyl)piperazin-1-yl)-7-methylpyrido[3,4-b]pyrazin-2-yl)amino)cyclobutanol]
11 | 446 nM | Cc1cc2nc(NC3CC3)c(N3CCN(Cc4ccc(OC(F)F)cc4F)CC3)nc2cn1 [Example 27, N-cyclopropyl-3-(4-(4-(difluoromethoxy)-2-fluorobenzyl)piperazin-1-yl)-7-methylpyrido[3,4-b]pyrazin-2-amine]
12 | > 1000 nM | Cc1cc2nc(N3CCN(Cc4ccc(OC(F)F)cc4F)CC3)c(N[C@H]3CCOC3)nc2cn1 [Example 49, (S)-2-(4-(4-(difluoromethoxy)-2-fluorobenzyl)piperazin-1-yl)-7-methyl-N-(tetrahydrofuran-3-yl)pyrido[3,4-b]pyrazin-3-amine]
13 | 278 nM | COc1ccc(CN2CCN(c3nc4cnc(C)cc4nc3N[C@H]3CCOC3)CC2)c(F)c1 [Example 25, (S)-3-(4-(2-fluoro-4-methoxybenzyl)piperazin-1-yl)-7-methyl-N-(tetrahydrofuran-3-yl)pyrido[3,4-b]pyrazin-2-amine]
14 | 39.9 nM | Cc1cc2nc(NC(C)C)c(N3CCC(Oc4ccc(OC(F)F)cc4F)CC3)nc2cn1 [Example 18, 3-(4-(4-(difluoromethoxy)-2-fluorophenoxy)piperidin-1-yl)-N-isopropyl-7-methylpyrido[3,4-b]pyrazin-2-amine]
15 | > 1000 nM | COc1ccc(CN2CCN(c3nc4cc(C)ncc4nc3NC3CC3)CC2)c(F)c1 [Example 43, N-cyclopropyl-2-(4-(2-fluoro-4-methoxybenzyl)piperazin-1-yl)-7-methylpyrido[3,4-b]pyrazin-3-amine]
16 | > 1000 nM | COc1ccc(CN2CCN(c3nc4cc(C)ncc4nc3N[C@@H]3CCOC3)CC2)c(F)c1 [Example 44, (R)-2-(4-(2-fluoro-4-methoxybenzyl)piperazin-1-yl)-7-methyl-N-(tetrahydrofuran-3-yl)pyrido[3,4-b]pyrazin-3-amine]

Row | EC50 | SMILES
17 | 76.3 nM | Cc1cc2nc(N3CCC(Oc4ccc(F)cc4F)CC3)c(N[C@@H]3CCOC3)nc2cn1 [Example 36]
18 | 128 nM | Cc1cc2nc(N3CCC(Oc4ccc(F)cc4F)CC3)c(N[C@H]3CCOC3)nc2cn1 [Example 37, (S)-2-(4-(2,4-difluorophenoxy)piperidin-1-yl)-7-methyl-N-(tetrahydrofuran-3-yl)pyrido[3,4-b]pyrazin-3-amine]
19 | > 1000 nM | Cc1cc2nc(N3CCN(Cc4ccc(OC(F)F)cc4F)CC3)c(NC3CC3)nc2cn1 [Example 47, N-cyclopropyl-2-(4-(4-(difluoromethoxy)-2-fluorobenzyl)piperazin-1-yl)-7-methylpyrido[3,4-b]pyrazin-3-amine]
20 | > 1000 nM | Cc1cc2nc(N3CCC(Oc4ccc(OC(F)F)cc4F)CC3)c(N[C@H]3CCOC3)nc2cn1 [Example 41, (S)-2-(4-(4-(difluoromethoxy)-2-fluorophenoxy)piperidin-1-yl)-7-methyl-N-(tetrahydrofuran-3-yl)pyrido[3,4-b]pyrazin-3-amine]
21 | 49.6 nM | Cc1cc2nc(N[C@H]3CCOC3)c(N3CCC(Oc4ccc(F)cc4F)CC3)nc2cn1 [Example 4, (S)-3-(4-(2,4-difluorophenoxy)piperidin-1-yl)-7-methyl-N-(tetrahydrofuran-3-yl)pyrido[3,4-b]pyrazin-2-amine]
22 | 81.4 nM | Cc1cc2nc(N[C@@H]3CCOC3)c(N3CCC(Oc4ccc(OC(F)F)cc4F)CC3)nc2cn1 [Example 20, (R)-3-(4-(4-(difluoromethoxy)-2-fluorophenoxy)piperidin-1-yl)-7-methyl-N-(tetrahydrofuran-3-yl)pyrido[3,4-b]pyrazin-2-amine]
23 | > 1000 nM | Cc1cc2nc(N[C@@H]3CCOC3)c(N3CCN(Cc4ccc(OC(F)F)cc4F)CC3)nc2cn1 [Example 28, (R)-3-(4-(4-(difluoromethoxy)-2-fluorobenzyl)piperazin-1-yl)-7-methyl-N-(tetrahydrofuran-3-yl)pyrido[3,4-b]pyrazin-2-amine]
24 | > 1000 nM | Cc1cc2nc(N3CCN(Cc4ccc(OC(F)F)cc4F)CC3)c(N[C@@H]3CCOC3)nc2cn1 [Example 48, (R)-2-(4-(4-(difluoromethoxy)-2-fluorobenzyl)piperazin-1-yl)-7-methyl-N-(tetrahydrofuran-3-yl)pyrido[3,4-b]pyrazin-3-amine]
25 | 61.4 nM | Cc1cc2nc(N[C@H]3C[C@H](F)C3)c(N3CCC(Oc4ccc(F)cc4F)CC3)nc2cn1 [Example 11, trans-3-(4-(2,4-difluorophenoxy)piperidin-1-yl)-N-(3-fluorocyclobutyl)-7-methylpyrido[3,4-b]pyrazin-2-amino]
26 | > 1000 nM | COc1ccc(CN2CCN(c3nc4cc(C)ncc4nc3N[C@H]3CCOC3)CC2)c(F)c1 [Example 45, (S)-2-(4-(2-fluoro-4-methoxybenzyl)piperazin-1-yl)-7-methyl-N-(tetrahydrofuran-3-yl)pyrido[3,4-b]pyrazin-3-amine]
27 | 188 nM | Cc1cc2nc(N3CCN(Cc4ccc(F)cc4F)CC3)c(NC3CC3)nc2cn1 [Example 31, N-cyclopropyl-2-(4-(2,4-difluorobenzyl)piperazin-1-yl)-7-methylpyrido[3,4-b]pyrazin-3-amine 2,2,2-trifluoroacetate]
28 | > 1000 nM | Cc1cc2nc(N3CCN(Cc4ccc(OC(F)F)cc4F)CC3)c(NC(C)C)nc2cn1 [Example 46, 2-(4-(4-(difluoromethoxy)-2-fluorobenzyl)piperazin-1-yl)-N-isopropyl-7-methylpyrido[3,4-b]pyrazin-3-amine]
29 | 326 nM | Cc1cc2nc(N3CCN(Cc4ccc(F)cc4F)CC3)c(N[C@H]3CCOC3)nc2cn1 [Example 32, (S)-2-(4-(2,4-difluorobenzyl)piperazin-1-yl)-7-methyl-N-(tetrahydrofuran-3-yl)pyrido[3,4-b]pyrazin-3-amine]
30 | 466 nM | Cc1cc2nc(NC(C)C)c(N3CCN(Cc4ccc(OC(F)F)cc4F)CC3)nc2cn1 [Example 26, 3-(4-(4-(difluoromethoxy)-2-fluorobenzyl)piperazin-1-yl)-N-isopropyl-7-methylpyrido[3,4-b]pyrazin-2-amine]
31 | 66.4 nM | Cc1cc2nc(N3CCC(Oc4ccc(F)cc4F)CC3)c(NC(C)C)nc2cn1 [Example 35, 2-(4-(2,4-difluorophenoxy)piperidin-1-yl)-N-isopropyl-7-methylpyrido[3,4-b]pyrazin-3-amine]
